Experimental data taken from patent US11504363B2, “Method of treating cancer and bone cancer pain” (Exelixis, Inc., priority 2011, dated 2022).

Legend:
[1] = test system: melanoma with bone metastases; assay: Randomized discontinuation study, melanoma with bone metastases (Case Study 5); type: in vivo, human; settings: 39 of 65 patients
[2] = test system: CRPC patients with bone metastases; assay: Phase 2 adaptive randomized discontinuation trial (RDT), Case Study 2; type: in vivo, human; settings: for patients reporting improvements in bone pain: baseline bone pain; for patients achieving tumor regression / patients experiencing pain relief / patients reducing or eliminating need for narcotic analgesics / patients with marked declines in markers of bone turnover / patients free of disease progression at month 6: post hoc
From the text: Data on bone pain and narcotic use, as assessed by the investigator, were collected retrospectively.

[3] = Phase 1 clinical study, tolerability; type: in vivo, human; settings: most common adverse events: fatigue, diarrhea, anorexia, rash, palmar-plantar erythrodysesthesia
[4] = test system: renal cell carcinoma with bone metastases; assay: Phase I trial, renal cell carcinoma with bone metastases (Case Study 4); type: in vivo, human
[5] = test system: pancreatic neuroendocrine tumor model; assay: Murine pancreatic neuroendocrine tumor model; settings: mouse, in vivo
[6] = test system: breast cancer with bone metastases; assay: Randomized discontinuation study, breast cancer with bone metastases (Case Study 6); type: in vivo, human; settings: of 10 evaluable for bone scan resolution (forty percent)
xenograft tumor models = assay: Xenograft tumor models; settings: in vivo
[7] = test system: differentiated thyroid cancer, bone metastasis to the skull; assay: Phase 1 drug-drug trial, differentiated thyroid cancer with bone metastasis (Case Study 7); type: in vivo, human; settings: one patient, after 9 weeks of treatment
[8] = test system: CRPC patients with evidence of bone metastases on bone scan; assay: Phase 2 adaptive trial NCT00940225, first three CRPC patients with bone metastases (Case Study 1); type: in vivo, human
Protocol: In 2000, local disease recurrence was treated with radiation therapy. […] CAB with leuprolide and bicalutamide was initiated.

[9] = patients with bone scan resolution
[10] = patients without bone scan resolution

COc1cc2nccc(Oc3ccc(NC(=O)C4(C(=O)Nc5ccc(F)cc5)CC4)cc3)c2cc1OC [Compound 1, N-(4-{[6,7-bis(methyloxy)quinolin-4-yl]oxy}phenyl)-N′-(4-fluorophenyl)cyclopropane-1,1-dicarboxamide]
patients with tumor shrinkage based on bone scan analysis [1]: 60%
patients able to decrease or discontinue narcotic medication for bone pain ([2]; 47 of 67 patients on narcotic analgesics at baseline): 70%
patients with pain improvement ([2]; 56 of 83 patients with bone metastases and bone pain at baseline, at either Week 6 or 12): 68%
patients with resolution or stabilization of metastatic bone lesions on bone scan ([2]; 82 of 108 evaluable patients): 76%
hemoglobin levels in anemic patients ([2]; anemic patients): Durable increases
patients reporting improvements in bone pain ([2]; complete resolution by bone scan (n=10)): 80%
patients reporting improvements in bone pain ([2]; partial resolution by bone scan (n=32)): 84%
patients reporting improvements in bone pain ([2]; stabilization of disease by bone scan (n=13)): 38%
median PFS ([2]; docetaxel-naïve patients (95% CI 24, upper limit not yet reached)): 24 weeks
median PFS ([2]; docetaxel-pretreated patients (95% CI 18, 33)): 29 weeks
patients with stable disease (SD) on bone scan ([2]; independent reviewer, 23 of n=108): 21%
subjects with partial or complete resolution of bone scan ([2]; independent reviewer, 82 of n=108): 76%
patients with progressive disease in bone as best assessment ([2]; independent reviewer, three of n=108): 3%
median PFS ([2]; overall population excluding those randomized to placebo, n=154): 29 weeks
patients achieving tumor regression [2, 9]: 78%
patients experiencing pain relief [2, 9]: 83%
patients reducing or eliminating need for narcotic analgesics [2, 9]: 68%
patients with marked declines in markers of bone turnover [2, 9]: 60%
patients free of disease progression at month 6 ([2]; patients with bone scan resolution (complete or partial)): 61%
patients achieving tumor regression [2, 10]: 58%
patients experiencing pain relief [2, 10]: 43%
patients reducing or eliminating need for narcotic analgesics [2, 10]: 33%
patients with marked declines in markers of bone turnover [2, 10]: 43%
patients free of disease progression at month 6 ([2]; patients without bone scan resolution (stable or progressing bone scan)): 35%
reduction in the risk of progression compared with placebo ([2]; randomized discontinuation phase): 87%
investigator-assessed median PFS from week 12 onward ([2]; randomized discontinuation phase, patients with SD at week 12, Compound 1 group n=14 (95% CI: 11 weeks, upper limit not yet reached)): 21 weeks
tolerability [3]: generally well-tolerated
bone scan analysis ([4]; one patient (FIG. 4)): tumor shrinkage was observed
narcotic use to control pain ([4]; same patient, by seven weeks, continued until week 25): substantially reduced narcotic use
pain ([4]; second patient, pain score 5 on a scale of 10 at baseline, by four weeks, pain-free as of week 73): complete resolution of pain
overall survival [5]: substantially improves
tumor invasiveness and metastasis [5]: significantly reduces
patients with tumor shrinkage based on bone scan analysis [6]: 4 patients
tumor effect in xenograft tumor models (xenograft tumor models): causes tumor regression
response of skull bone metastasis as judged by MRI [7]: dramatic response
Bone scan (best response) ([8]; Patient 1): Complete resolution
Hemoglobin (best response, change) ([8]; Patient 1): +1.4 g/dL
PSA (best response, change) ([8]; Patient 1): −78%
Pain (best response) ([8]; Patient 1): Improvement
tALP (best response, change) ([8]; Patient 1): −77%
radiotracer uptake by bone metastases on bone scan ([8]; Patient 1, Week 6): dramatic decrease
bone lesions on bone scan ([8]; Patient 1, Week 12, stable through Week 18): near complete resolution
adverse event leading to withdrawal ([8]; Patient 1, Week 18): Grade 3 diarrhea
bone pain ([8]; Patient 1, four weeks after start): significant reduction
Bone scan (best response) ([8]; Patient 2): Improvement
Hemoglobin (best response, change) ([8]; Patient 2): +1.8 g/dL
PSA (best response, change) ([8]; Patient 2): +61%
Pain (best response) ([8]; Patient 2): Pain-free
tALP (best response, change) ([8]; Patient 2): −6%
bone pain ([8]; Patient 2, Week 4): reduction in bone pain
radiotracer uptake by bone lesions on bone scan ([8]; Patient 2, Week 6): slight flair
hemoglobin increase compared with baseline ([8]; Patient 2, Week 12): 1.8 g/dL
radiotracer uptake on bone scan ([8]; Patient 2, Week 12): substantial reduction
PSA peak ([8]; Patient 2, by Week 16, placebo from Week 12, crossed over to Compound 1 at Week 15): ~6 fold of baseline
PSA ([8]; Patient 2, by Week 18, subsequent to crossing over to Compound 1 from placebo): 2 fold of baseline
Bone scan (best response) ([8]; Patient 3): Near resolution
Hemoglobin (best response, change) ([8]; Patient 3): +2.2 g/dL
PSA (best response, change) ([8]; Patient 3): −57%
Pain (best response) ([8]; Patient 3): Pain-free
tALP (best response, change) ([8]; Patient 3): −77%
hemoglobin increase compared with baseline ([8]; Patient 3, Week 2): 2.2 g/dL
radiotracer uptake on bone scan ([8]; Patient 3, Week 6): dramatic reduction
bone lesions on bone scan ([8]; Patient 3, Week 12): complete resolution of bone lesions
pain ([8]; Patient 3, after three weeks): complete resolution of pain
